Assays:
Format in all cases: cell-based
[1] = system: MCF-7 (human breast cancer) cell line; test: In vitro cytotoxic activity, MTT assay, MCF-7; conditions: for IC50: MCF7, 50, 25, 12.5 and 6.25 μM, three independent experiments, read-out: IC50 ± SEM (50% cell growth inhibition), MCF7; for Cytotoxic activity in words (comparison): MCF-7, 6.2 μM to 50 μM
Method: (§1) A Pt(II) metal precursor, cisplatin, carboplatin and seven synthesized complexes (1)-(7) were evaluated for their in-vitro cytotoxic activity against HeLa (human cervical cancer), A549 (human lung cancer), MCF-7 (human breast cancer) and HTC15 (human colon cancer) cell lines.
(§2) The cells were seeded at 4×10^3 cells/well in 100 μL DMEM (Dulbecco's Modified Eagle's Medium) containing 10%. FBS (Fetal Bovine Serum) in 96-well tissue culture plate and incubated for 72 h at 37° C., 5% CO2 in air and 90% relative humidity in CO2 incubator. […] The medium of wells was discarded and 100 μL DMEM containing MTT (3-(4,5-dimethylthiazol-2-Yl)-2,5-diphenyltetrazolium bromide) (5 mg/mL) was added to the wells and incubated in CO2 incubator at 37° C. in dark for 4 h. After incubation, a purple colored formazan (artificial chromogenic dye, product of the reduction of water insoluble tetrazolium salts e.g., MMT by dehydrogenases and reductases) in the cells is produced and appeared as dark crystals in the bottom of the wells. The medium of culture was discarded from each well carefully to avoid disruption of monolayer and 100 μL of dimethylsufoxide (DMSO) was added in each well. The solution was thoroughly mixed in the wells to dissolve the formazan crystals which ultimately result into a purple solution. The absorbance of the 96-wells plate was taken at 570 nm with Labsystems Multiskan EX-Enzyme-linked immunosorbent assay (EX-ELISA) reader against a reagent blank. The IC50 values were calculated from three independent experiments by generating an equation of logarithmic trendline of percentage cell viability against concentration of compounds in Microsoft Excel.
(§3) Preliminary anti-cancer activity studies were carried out on seven synthesized Pt(II) complexes (1)-(7), Pt(II) precursor, cisplatin and carboplatin against four cancer cell lines HeLa, A549, HCT15 and MCF-7 (human cancer cell lines) and an MTT assay was used to determine their dose-dependent cytotoxicity after 72 h [U. Bierbach, T. W. Hambly, N. Farrell, Inorg.
(§4) The MTT assay was performed in three independent experiments, each in triplicate. The cancer cell lines used are HeLa (human cervical cancer), A549 (human lung cancer), MCF-7 (human breast cancer) and HCT15 (human colon cancer) cell lines.

[2] = system: A549 (human lung cancer) cell line; test: In vitro cytotoxic activity, MTT assay, A549; conditions: for Cytotoxic activity in words (comparison): 6.2 μM to 50 μM; for IC50: 50, 25, 12.5 and 6.25 μM, three independent experiments, read-out: IC50 ± SEM (50% cell growth inhibition), A549
Method: as §1, §2, §3, §4

[3] = system: HeLa (human cervical cancer) cell line; test: In vitro cytotoxic activity, MTT assay, HeLa; conditions: for Cytotoxic activity in words (comparison): 6.2 μM to 50 μM; for IC50: 50, 25, 12.5 and 6.25 μM, three independent experiments, read-out: IC50 ± SEM (50% cell growth inhibition), HeLa
Method: as §1, §2, §3, §4

[4] = system: HCT15 (human colon cancer) cell line; test: In vitro cytotoxic activity, MTT assay, HCT15; conditions: for Cytotoxic activity in words (comparison): 6.2 μM to 50 μM; for IC50: 50, 25, 12.5 and 6.25 μM, three independent experiments, read-out: IC50 ± SEM (50% cell growth inhibition), HCT15
Method: as §1, §2, §3, §4

Molecule | IC50 [1] | Cytotoxic activity in words (comparison) [1] | Cytotoxic activity in words (comparison) [2] | IC50 [2] | Cytotoxic activity in words (comparison) [3] | IC50 [3] | Cytotoxic activity in words (comparison) [4] | IC50 [4]
CCN1CCCNC1=[SH][Pt+2]([SH]=C1NCCCN1CC)([PH](CC)(CC)CC)[PH](CC)(CC)CC.[Cl-].[Cl-] [Complex (6)] | 1.23 ± 0.34 µM | highest activity | better than cisplatin and carboplatin | 3.6 ± 0.72 µM | better than cisplatin and carboplatin | 1.83 ± 0.35 µM | better than cisplatin and carboplatin | 5.7 ± 0.91 µM
CCP(CC)CC.CCP(CC)CC.[Cl][Pt][Cl] [Pt(II) precursor, cis-Bis(triethylphosphine)platinum(II)chloride, reference compound] | 59.8 ± 2.15 µM |  |  | 55.6 ± 2.53 µM |  | 45.8 ± 2.33 µM |  | 39.1 ± 1.98 µM
cis-bis(triethylphosphine)di(1-methylimidazolidine-2-thione)platinum(II) [Complex (2)] | 2.63 ± 0.88 µM |  |  | 3.93 ± 0.47 µM |  | 1.83 ± 0.26 µM |  | 8.6 ± 0.93 µM
CC[PH](CC)(CC)[Pt+2]([SH]=C1NCCCCN1)([SH]=C1NCCCCN1)[PH](CC)(CC)CC.[Cl-].[Cl-] [Complex (7), cis-bis(triethylphosphine)di(1,3-diazepane-thione)platinum(II)] | 22.3 ± 1.35 µM |  |  | 27.7 ± 1.48 µM |  | 17.3 ± 1.34 µM |  | 37.1 ± 1.86 µM
N.N.[Cl][Pt][Cl] [Cisplatin, cis-diaminedichlorido platinum(II) complex cis-[(NH3)2PtCl2], reference compound] | 22.4 ± 1.37 µM |  |  | 41.7 ± 1.17 µM |  | 19.2 ± 1.81 µM |  | 29.7 ± 2.35 µM
CCN1CCN(CC)C1=[SH][Pt+2]([SH]=C1N(CC)CCN1CC)([PH](CC)(CC)CC)[PH](CC)(CC)CC.[Cl-].[Cl-] [Complex (4), cis-bis(triethylphosphine)di(1,3-diethylimidazolidine-2-thione)platinum(II)] | 13.5 ± 1.36 µM |  |  | 12.6 ± 1.09 µM |  | 9.9 ± 1.65 µM |  | 16.1 ± 1.13 µM
CC[PH](CC)(CC)[Pt+2]([SH]=C1N(C)CCN1C)([SH]=C1N(C)CCN1C)[PH](CC)(CC)CC.[Cl-].[Cl-] [Complex (3), cis-bis(triethylphosphine)di(1,3-dimethylimidazolidine-2-thione)platinum(II)] | 3.77 ± 0.61 µM | most effective against all cancer cell lines | most effective against all cancer cell lines | 2.37 ± 0.29 µM | most effective against all cancer cell lines | 1.5 ± 0.21 µM | most effective against all cancer cell lines | 4.23 ± 0.73 µM
cis-bis(triethylphosphine)di(tetrahydropyrimidine-2(1H)-thione)platinum(II) [Complex (5)] | 4.73 ± 0.95 µM |  |  | 4.5 ± 0.78 µM |  | 2.23 ± 0.52 µM |  | 6.87 ± 1.07 µM
N.N.O=C([O-])C1(C(=O)[O-])CCC1.[Pt+2] [Carboplatin, carboplatin, reference compound] | 55.6 ± 2.53 µM |  |  | 71.2 ± 2.84 µM |  | 56.5 ± 2.23 µM |  | 63.9 ± 2.25 µM
CC[PH](CC)(CC)[Pt+2]([SH]=C1NCCN1)([SH]=C1NCCN1)[PH](CC)(CC)CC.[Cl-].[Cl-] [Complex (1), cis-bis(triethylphosphine)di(imidazolidine-2-thione)platinum(II)] | 4.67 ± 1.05 µM |  |  | 3.5 ± 0.74 µM |  | 1.4 ± 0.29 µM |  | 7.03 ± 1.04 µM
